These are literature values, as cited in EP4140474A1, “NUT[…] THE REDUCTION OF OSTE[…] AND INFLAMMATION” (Theracell Advanced Biotechnology S.A., priority 2021, dated 2023).

In one data set the target is MMP13 (Homo sapiens, UniProt P45452). Conditions: selective inhibitor of MMP13.

With `O=C(/C=C/c1ccc(O)c(O)c1)O[C@H](Cc1ccc(O)c(O)c1)C(=O)O` [rosmarinic, rosmarinic acid], the IC50 on MMP13 was 2900 nM.
Turning to `Oc1ccc(C=Cc2cc(O)cc(O)c2)cc1` [resveratrol], the IC50 on lipoxygenase was 2700 nM.
